Data on ten compounds can be found in ChEMBL document CHEMBL1124186, “Synthesis and evaluation of tylosin-related macrolides modified at the aldehyde function: a new series of orally effective antibiotics” (1988).

Molecules are shown by their SMILES. In brackets after ≈: the same amount, converted by molar mass. Bounds are passed on as bounds.

The subject of one assay is Staphylococcus aureus. Briefly: In vitro antimicrobial activity against Staphylococcus aureus X1. The class given is functional.
The test system of a further assay is Haemophilus influenzae. Briefly: In vitro antimicrobial activity against Haemophilus influenzae. The class given is functional.
A further assay relates to Streptococcus pneumoniae. Kind of assay: In vitro antimicrobial activity against Streptococcus pneumoniae. The class given is functional.
Another assay has as its system Enterococcus faecium. Briefly: In vitro antimicrobial activity against Streptococcus faecium X66. The format is functional, streptococcus fae-cium.
The test system of assay [1] is Staphylococcus epidermidis. Kind of assay: In vitro antimicrobial activity against Staphylococcus epidermidis EPI1. The class given is functional.
Another assay concerns Streptococcus pyogenes. Kind of assay: In vitro antimicrobial activity against Streptococcus pyogenes C203. The class given is functional.

`CC[C@H]1OC(=O)C[C@@H](O)[C@H](C)[C@@H](O[C@@H]2O[C@H](C)[C@@H](O[C@H]3C[C@@](C)(O)[C@@H](O)[C@H](C)O3)[C@H](N(C)C)[C@H]2O)[C@@H](CCNCCc2ccccc2)C[C@@H](C)C(=O)/C=C/C(C)=C/[C@@H]1CO`: the MIC was 16 µg/mL (≈ 18.9 µM) in the assay on Staphylococcus aureus; 64 µg/mL (≈ 75.6 µM) in the assay on Haemophilus influenzae; 4 µg/mL (≈ 4.72 µM) against Streptococcus pneumoniae; 32 µg/mL (≈ 37.8 µM) in the assay on Enterococcus faecium; 16 µg/mL (≈ 18.9 µM) in assay [1]; 8 µg/mL (≈ 9.44 µM) in the assay on Streptococcus pyogenes.
Turning to `CC[C@H]1OC(=O)C[C@@H](O)[C@H](C)[C@@H](O[C@@H]2O[C@H](C)[C@@H](O[C@H]3C[C@@](C)(O)[C@@H](O)[C@H](C)O3)[C@H](N(C)C)[C@H]2O)[C@@H](C)C[C@@H](C)C(=O)/C=C/C(C)=C/[C@@H]1CO`, the MIC was 64 µg/mL (≈ 89.6 µM) with Staphylococcus aureus; greater than 128 µg/mL against Haemophilus influenzae; 64 µg/mL (≈ 89.6 µM) in the assay on Streptococcus pneumoniae; 128 µg/mL (≈ 179 µM) against Enterococcus faecium; 16 µg/mL (≈ 22.4 µM) in assay [1]; 64 µg/mL (≈ 89.6 µM) against Streptococcus pyogenes.
Consider `CC[C@H]1OC(=O)C[C@@H](O)[C@H](C)[C@@H](O[C@@H]2O[C@H](C)[C@@H](O)[C@H](N(C)C)[C@H]2O)[C@@H](CCOc2ccc(C=O)cc2)C[C@@H](C)C(=O)/C=C/C(C)=C/[C@@H]1CO[C@@H]1O[C@H](C)[C@@H](O)[C@@H](OC)[C@H]1OC`, for which the MIC with Staphylococcus aureus stood at 0.25 µg/mL (≈ 0.285 µM); in the assay with Haemophilus influenzae, 16 µg/mL (≈ 18.2 µM); against Streptococcus pneumoniae it was 1 µg/mL (≈ 1.14 µM); against Enterococcus faecium it was 4 µg/mL (≈ 4.56 µM); in assay [1], 0.25 µg/mL (≈ 0.285 µM); in the assay with Streptococcus pyogenes, 1 µg/mL (≈ 1.14 µM).
On to `CC[C@H]1OC(=O)C[C@@H](O)[C@H](C)[C@@H](O[C@@H]2O[C@H](C)[C@@H](O[C@H]3C[C@@](C)(O)[C@@H](O)[C@H](C)O3)[C@H](N(C)C)[C@H]2O)[C@@H](CCO)C[C@@H](C)C(=O)/C=C/C(C)=C/[C@@H]1C`, for which the MIC in the assay on Staphylococcus aureus is 64 µg/mL (≈ 87.9 µM); with Haemophilus influenzae it was greater than 128 µg/mL; in the assay with Streptococcus pneumoniae, 64 µg/mL (≈ 87.9 µM); with Enterococcus faecium, 64 µg/mL (≈ 87.9 µM); in assay [1], 32 µg/mL (≈ 44 µM); against Streptococcus pyogenes it was 64 µg/mL (≈ 87.9 µM).
For `CC[C@H]1OC(=O)C[C@@H](O)[C@H](C)[C@@H](O[C@@H]2O[C@H](C)[C@@H](O)[C@H](N(C)C)[C@H]2O)[C@@H](CCN2C(=O)c3ccccc3C2=O)C[C@@H](C)C(=O)/C=C/C(C)=C/[C@@H]1C`, the MIC against Staphylococcus aureus is 8 µg/mL (≈ 11.2 µM); in the assay on Haemophilus influenzae, 128 µg/mL (≈ 180 µM); in the assay on Streptococcus pneumoniae it was 64 µg/mL (≈ 89.8 µM); against Enterococcus faecium, 32 µg/mL (≈ 44.9 µM); in assay [1] it was 8 µg/mL (≈ 11.2 µM); against Streptococcus pyogenes, 64 µg/mL (≈ 89.8 µM).
On to `CC[C@H]1OC(=O)C[C@@H](O)[C@H](C)[C@@H](O[C@@H]2O[C@H](C)[C@@H](O[C@H]3C[C@@](C)(O)[C@@H](O)[C@H](C)O3)[C@H](N(C)C)[C@H]2O)[C@@H](CCOc2cc(Cl)cc(Cl)c2)C[C@@H](C)C(=O)/C=C/C(C)=C/[C@@H]1CO[C@@H]1O[C@H](C)[C@@H](O)[C@@H](OC)[C@H]1OC`, for which the MIC in the assay with Staphylococcus aureus is 1 µg/mL (≈ 0.941 µM); in the assay with Haemophilus influenzae, greater than 128 µg/mL; with Streptococcus pneumoniae it was 16 µg/mL (≈ 15.1 µM); against Enterococcus faecium it was greater than 128 µg/mL; in assay [1], 2 µg/mL (≈ 1.88 µM); in the assay with Streptococcus pyogenes, 1 µg/mL (≈ 0.941 µM).
Consider `CC[C@H]1C[C@@H](C)C(=O)/C=C/C(C)=C/[C@H](C)[C@@H](CC)OC(=O)C[C@@H](O)[C@H](C)[C@H]1O[C@@H]1O[C@H](C)[C@@H](O)[C@H](N(C)C)[C@H]1O`, for which the MIC is 8 µg/mL (≈ 14.1 µM) in the assay with Staphylococcus aureus; 64 µg/mL (≈ 113 µM) in the assay on Haemophilus influenzae; 16 µg/mL (≈ 28.2 µM) with Streptococcus pneumoniae; 64 µg/mL (≈ 113 µM) against Enterococcus faecium; 16 µg/mL (≈ 28.2 µM) in assay [1]; 8 µg/mL (≈ 14.1 µM) against Streptococcus pyogenes.
For `CC[C@H]1OC(=O)C[C@@H](O)[C@H](C)[C@H]2OCC[C@H]2C[C@@H](C)C(=O)/C=C/C(C)=C/[C@@H]1CO[C@@H]1O[C@H](C)[C@@H](O)[C@@H](OC)[C@H]1OC`, the MIC (against Staphylococcus aureus; in the assay with Haemophilus influenzae; with Streptococcus pneumoniae; in the assay with Enterococcus faecium; in assay [1]; with Streptococcus pyogenes) was greater than 128 µg/mL throughout.
Turning to `CC[C@H]1OC(=O)C[C@@H](O)[C@H](C)[C@@H](O[C@@H]2O[C@H](C)[C@@H](O[C@H]3C[C@@](C)(O)[C@@H](O)[C@H](C)O3)[C@H](N(C)C)[C@H]2O)[C@@H](CCOc2ccc([N+](=O)[O-])cc2)C[C@@H](C)C(=O)/C=C/C(C)=C/[C@@H]1CO[C@@H]1O[C@H](C)[C@@H](O)[C@@H](OC)[C@H]1OC`, the MIC with Staphylococcus aureus was 1 µg/mL (≈ 0.962 µM); with Haemophilus influenzae, greater than 128 µg/mL; in the assay on Streptococcus pneumoniae, 16 µg/mL (≈ 15.4 µM); in the assay with Enterococcus faecium, 128 µg/mL (≈ 123 µM); in assay [1], 1 µg/mL (≈ 0.962 µM); against Streptococcus pyogenes, 2 µg/mL (≈ 1.92 µM).
`CC[C@H]1OC(=O)C[C@@H](O)[C@H](C)[C@@H](O[C@@H]2O[C@H](C)[C@@H](O[C@H]3C[C@@](C)(O)[C@@H](O)[C@H](C)O3)[C@H](N(C)C)[C@H]2O)[C@@H](CCI)C[C@@H](C)C(=O)/C=C/C(C)=C/[C@@H]1CO[C@@H]1O[C@H](C)[C@@H](O)[C@@H](O)[C@H]1OC`: the MIC with Staphylococcus aureus stood at 2 µg/mL (≈ 1.97 µM); in the assay on Haemophilus influenzae it was 128 µg/mL (≈ 126 µM); in the assay with Streptococcus pneumoniae it was 16 µg/mL (≈ 15.8 µM); against Enterococcus faecium it was 128 µg/mL (≈ 126 µM); in assay [1], 2 µg/mL (≈ 1.97 µM); against Streptococcus pyogenes it was 4 µg/mL (≈ 3.94 µM).
